Test results published in patent publication US9833497B2, “Human originated EGF domain proteins and use of the same” (CHENGDU SOURCEBIO LIMITED-LIABILITY COMPANY, priority 2013, dated 2017).

Columns and labels:
Type in all cases: cell-based
Proteus mirabilis = assay: MIC against Gram-negative bacteria: Proteus mirabilis; conditions: 5×10^5 CFU/mL
Summary of the method: (§1)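 Inocula prepared by growing LB cultures at 37° C to 0.5 McFarland, centrifuging at 4000×g, and resuspending in fresh medium. Final density 5×10^5 CFU/mL per well with two-fold dilutions of purified EGF domain protein; shaking incubation at 37° C.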

E. coli DH5α = assay: Antibacterial activity: MIC and growth curve against E. coli DH5α in 96-well plate; conditions: minimal inhibitory concentration against E. coli DH5α; 96-well plate, 5×10^5 CFU/mL, 37° C., judged after 8 h
Summary of the method: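 Log-phase bacteria (OD600 ~0.5) resuspended in LB at 5×10^5 CFU/mL, exposed to recombinant protein at 50, 25, 12.5 μg/mL final in triplicate, 37 °C shaking at 175 rpm. OD600 read every 30 min; MIC is lowest concentration showing no growth.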

Enterobacter cloacae = assay: MIC against Gram-negative bacteria: Enterobacter cloacae; conditions: 5×10^5 CFU/mL
Summary of the method: as §1

Klebsiella pneumonia = assay: MIC against Gram-negative bacteria: Klebsiella pneumonia; conditions: 5×10^5 CFU/mL
Summary of the method: as §1

Proteus vulgaris = assay: MIC against Gram-negative bacteria: Proteus vulgaris; conditions: 5×10^5 CFU/mL
Summary of the method: as §1

Citrobacter diversus = assay: MIC against Gram-negative bacteria: Citrobacter diversus; conditions: 5×10^5 CFU/mL
Summary of the method: as §1

E. coli BL21 = assay: MIC against Gram-negative bacteria: E. coli BL21; conditions: 5×10^5 CFU/mL
Summary of the method: as §1

Serratia marcescens = assay: MIC against Gram-negative bacteria: Serratia marcescens; conditions: 5×10^5 CFU/mL
Summary of the method: as §1

Pseudomonas aeruginosa = assay: MIC against Gram-negative bacteria: Pseudomonas aeruginosa; conditions: 5×10^5 CFU/mL
Summary of the method: as §1

Aeromonas hydrophila = assay: MIC against Gram-negative bacteria: Aeromonas hydrophila; conditions: 5×10^5 CFU/mL
Summary of the method: as §1

Moraxella catarrhalis = assay: MIC against Gram-negative bacteria: Moraxella catarrhalis; conditions: 5×10^5 CFU/mL
Summary of the method: as §1

[1] = P. mirabilis, 10 h cultivation at 37° C.
[2] = E. cloacae, 10 h cultivation at 37° C.
[3] = K. pneumonia, 10 h cultivation at 37° C.
[4] = P. vulgaris, 10 h cultivation at 37° C.
[5] = C. diversus, 10 h cultivation at 37° C.
[6] = E. coli BL21, 10 h cultivation at 37° C.
[7] = S. marcescens, 10 h cultivation at 37° C.
[8] = P. aeruginosa, 10 h cultivation at 37° C.
[9] = A. hydrophila, 10 h cultivation at 37° C.
[10] = M. catarrhalis, 10 h cultivation at 37° C.
[11] = 10 h cultivation at 37° C., two-fold serial dilution

PRT416 (DVDECAPPAEPCGKGHRCVNSPGSFRCECKTGYYFDGISRMCV; listed as Homo sapiens)
MIC (Proteus mirabilis; [1]): 50 µg/mL
MIC (E. coli DH5α): 50 µg/mL
MIC (Enterobacter cloacae; [2]): 50 µg/mL
MIC (Klebsiella pneumonia; [3]): 25 µg/mL
MIC (Proteus vulgaris; [4]): 25 µg/mL
MIC (Citrobacter diversus; [5]): 12.5 µg/mL
MIC (E. coli BL21; [6]): 25 µg/mL
MIC (Serratia marcescens; [7]): 12.5 µg/mL
MIC (Pseudomonas aeruginosa; [8]): 12.5 µg/mL
MIC (Aeromonas hydrophila; [9]): 25 µg/mL
MIC (Moraxella catarrhalis; [10]): 25 µg/mL

PRT616 (CDCNGKSRQCIFDRELHRQTGNGFRCLNCNDNTDGIHCEKCKNGFYRHRERDRCLP; listed as Homo sapiens)
MIC P. mirabilis (Proteus mirabilis; 96-well plate, 37° C., 10 h): 12.5 µg/mL
MIC (E. coli DH5α): 25 µg/mL
MIC E. cloacae (Enterobacter cloacae; 96-well plate, 37° C., 10 h): 12.5 µg/mL
MIC K. pneumonia (Klebsiella pneumonia; 96-well plate, 37° C., 10 h): 50 µg/mL
MIC P. vulgaris (Proteus vulgaris; 96-well plate, 37° C., 10 h): 25 µg/mL
MIC C. diversus (Citrobacter diversus; 96-well plate, 37° C., 10 h): 12.5 µg/mL
MIC E. coli BL21 (E. coli BL21; 96-well plate, 37° C., 10 h): 12.5 µg/mL
MIC S. marcescens (Serratia marcescens; 96-well plate, 37° C., 10 h): 12.5 µg/mL
MIC P. aeruginosa (Pseudomonas aeruginosa; 96-well plate, 37° C., 10 h): 25 µg/mL
MIC A. hydrophila (Aeromonas hydrophila; 96-well plate, 37° C., 10 h): 25 µg/mL
MIC M. catarrhalis (Moraxella catarrhalis; 96-well plate, 37° C., 10 h): 25 µg/mL

PRT1259 (CAVNNGGCDRTCKDTATGVRCSCPVGFTLQPDGKTC; listed as Homo sapiens)
MIC against P. mirabilis (Proteus mirabilis; Proteus mirabilis, 96-well plate, 37° C., 10 h): 12.5 µg/mL
MIC (E. coli DH5α): 25 µg/mL
MIC against E. cloacae (Enterobacter cloacae; Enterobacter cloacae, 96-well plate, 37° C., 10 h): 25 µg/mL
MIC against K. pneumonia (Klebsiella pneumonia; Klebsiella pneumonia, 96-well plate, 37° C., 10 h): 12.5 µg/mL
MIC against P. vulgaris (Proteus vulgaris; Proteus vulgaris, 96-well plate, 37° C., 10 h): 50 µg/mL
MIC against C. diversus (Citrobacter diversus; Citrobacter diversus, 96-well plate, 37° C., 10 h): 12.5 µg/mL
MIC against E. coli BL21 (E. coli BL21; E. coli BL21, 96-well plate, 37° C., 10 h): 50 µg/mL
MIC against S. marcescens (Serratia marcescens; Serratia marcescens, 96-well plate, 37° C., 10 h): 12.5 µg/mL
MIC against P. aeruginosa (Pseudomonas aeruginosa; Pseudomonas aeruginosa, 96-well plate, 37° C., 10 h): 25 µg/mL
MIC against A. hydrophila (Aeromonas hydrophila; Aeromonas hydrophila, 96-well plate, 37° C., 10 h): 50 µg/mL
MIC against M. catarrhalis (Moraxella catarrhalis; Moraxella catarrhalis, 96-well plate, 37° C., 10 h): 50 µg/mL

PRT1064 (INECLSRKLSGCSQDCEDLKIGFKCRCRPGFRLKDDGRTCA; listed as Homo sapiens)
MIC P. mirabilis (Proteus mirabilis; [11]): 50 µg/mL
MIC (E. coli DH5α): 25 µg/mL
MIC E. cloacae (Enterobacter cloacae; [11]): 50 µg/mL
MIC K. pneumonia (Klebsiella pneumonia; [11]): 12.5 µg/mL
MIC P. vulgaris (Proteus vulgaris; [11]): 25 µg/mL
MIC C. diversus (Citrobacter diversus; [11]): 12.5 µg/mL
MIC E. coli BL21 (E. coli BL21; [11]): 50 µg/mL
MIC S. marcescens (Serratia marcescens; [11]): 12.5 µg/mL
MIC P. aeruginosa (Pseudomonas aeruginosa; [11]): 25 µg/mL
MIC A. hydrophila (Aeromonas hydrophila; [11]): 25 µg/mL
MIC M. catarrhalis (Moraxella catarrhalis; [11]): 25 µg/mL

PRT844 (CRCNRHSECAGVGARDHCLLCRNHTKGSHCEQCLPLFVGSAVGGGTCRP; listed as Homo sapiens)
MIC (μg/mL) P. mirabilis (Proteus mirabilis; [1]): 12.5 µg/mL
MIC (E. coli DH5α): 12.5 µg/mL
MIC (μg/mL) E. cloacae (Enterobacter cloacae; [2]): 50 µg/mL
MIC (μg/mL) K. pneumonia (Klebsiella pneumonia; [3]): 12.5 µg/mL
MIC (μg/mL) P. vulgaris (Proteus vulgaris; [4]): 12.5 µg/mL
MIC (μg/mL) C. diversus (Citrobacter diversus; [5]): 50 µg/mL
MIC (μg/mL) E. coli BL21 (E. coli BL21; [6]): 25 µg/mL
MIC (μg/mL) S. marcescens (Serratia marcescens; [7]): 25 µg/mL
MIC (μg/mL) P. aeruginosa (Pseudomonas aeruginosa; [8]): 50 µg/mL
MIC (μg/mL) A. hydrophila (Aeromonas hydrophila; [9]): 12.5 µg/mL
MIC (μg/mL) M. catarrhalis (Moraxella catarrhalis; [10]): 25 µg/mL

PRT783 (WGPNCSLPCYCKNGASCSPDDGICECAPGFRGTTCQ; listed as Homo sapiens)
MIC (μg/mL) P. mirabilis (Proteus mirabilis; [1]): 25 µg/mL
MIC (E. coli DH5α): 25 µg/mL
MIC (μg/mL) E. cloacae (Enterobacter cloacae; [2]): 25 µg/mL
MIC (μg/mL) K. pneumonia (Klebsiella pneumonia; [3]): 12.5 µg/mL
MIC (μg/mL) P. vulgaris (Proteus vulgaris; [4]): 50 µg/mL
MIC (μg/mL) C. diversus (Citrobacter diversus; [5]): 25 µg/mL
MIC (μg/mL) E. coli BL21 (E. coli BL21; [6]): 12.5 µg/mL
MIC (μg/mL) S. marcescens (Serratia marcescens; [7]): 12.5 µg/mL
MIC (μg/mL) P. aeruginosa (Pseudomonas aeruginosa; [8]): 50 µg/mL
MIC (μg/mL) A. hydrophila (Aeromonas hydrophila; [9]): 50 µg/mL
MIC (μg/mL) M. catarrhalis (Moraxella catarrhalis; [10]): 12.5 µg/mL

PRT498 (CDCNPHGSVHGDCDRTSGQCVCRLGASGLRCDECEPRHILMETDCVS; listed as Homo sapiens)
MIC against P. mirabilis (Proteus mirabilis; 96-well plate, 37° C., 10 h): 25 µg/mL
MIC (E. coli DH5α): 12.5 µg/mL
MIC against E. cloacae (Enterobacter cloacae; 96-well plate, 37° C., 10 h): 12.5 µg/mL
MIC against K. pneumonia (Klebsiella pneumonia; 96-well plate, 37° C., 10 h): 12.5 µg/mL
MIC against P. vulgaris (Proteus vulgaris; 96-well plate, 37° C., 10 h): 12.5 µg/mL
MIC against C. diversus (Citrobacter diversus; 96-well plate, 37° C., 10 h): 25 µg/mL
MIC against E. coli BL21 (E. coli BL21; 96-well plate, 37° C., 10 h): 50 µg/mL
MIC against S. marcescens (Serratia marcescens; 96-well plate, 37° C., 10 h): 25 µg/mL
MIC against P. aeruginosa (Pseudomonas aeruginosa; 96-well plate, 37° C., 10 h): 12.5 µg/mL
MIC against A. hydrophila (Aeromonas hydrophila; 96-well plate, 37° C., 10 h): 12.5 µg/mL
MIC against M. catarrhalis (Moraxella catarrhalis; 96-well plate, 37° C., 10 h): 12.5 µg/mL
